Earlier results, collected in PMC7395068, “The evolution of strategies to minimise the risk of human drug-induced liver injury (DILI) in drug discovery and development” (Archives of Toxicology, 2020).
Where two headings read alike, the source gives them in different places.

Assays:
PHH spheroids = conditions: In vitro Assay; ref Vorrink 2018; cited from earlier work
human hepatocytes = conditions: cited from earlier work
[1] = test system: isolated mouse liver mitochondria; conditions: In vitro Assay; ref Porceddu 2012; cited from earlier work
[2] = cited from earlier work
[3] = cited from earlier work; remark: listed apart in the source
[4] = cited from earlier work; remark: listed apart in the source
[5] = test system: THLE or HepG2 cells, isolated mitochondria, BSEP; conditions: cited from earlier work
HepG2 cells [6] = conditions: In vitro Assay; ref Persson 2013; cited from earlier work
HepG2 cells [7] = conditions: In vitro Assay; ref O'Brien 2006; cited from earlier work
[8] = score by FDA drug labelling, scale 1-8, ref Chen 2011
[9] = binary in vivo DILI call given beside the severity category, ref Chen 2016
[10] = human DILI concern category (LTKB DILIrank), ref Chen 2016

NC12CC3CC(CC(C3)C1)C2 [amantadine]
hLiMTs ATP <20 x Cmax (PHH spheroids): -VE
Structural based (HCI) (human hepatocytes; In vitro Assay, ref Xu 2008): -VE
in vitro data EC2<=1x Cmax [1]: -VE
DILI Score (FDA) (1-8) ([2]; in vivo): 3
DILI +VE (5-8), DILI -VE (-4) ([3]; in vivo): -VE
DILI severity category ([3]; in vivo): Ambiguous DILI-concern
In vivo DILI ([4]; in vivo): -VE

CS(=O)(=O)OCCCCOS(C)(=O)=O [busulfan]
in vitro data EC2<=1x Cmax [1]: +VE
in vitro data EC20<=2uM [1]: -VE
DILI Score (FDA) (1-8) ([2]; ref Chen 2011): 8
DILI +VE (5-8), DILI -VE (-4) ([3]; ref Chen 2016): +VE
DILI severity category ([3]; ref Chen 2016): vMost-DILI-Concern
In vivo DILI ([4]; […]): +VE
In vivo DILI ([4]; ref Porceddu 2012): +VE

Nc1ccn([C@@H]2O[C@H](CO)[C@@H](O)[C@@H]2O)c(=O)n1 [cytarabine]
DILI Score (FDA) (1-8) ([2]; in vivo): 3
DILI +VE (5-8), DILI -VE (-4) ([3]; in vivo): +VE
DILI severity category ([3]; in vivo): vMost-DILI-Concern
In vivo DILI ([4]; in vivo): +VE

CC[C@@H](CO)NCCN[C@@H](CC)CO [ethambutol]
Partition Hybrid HRM Score ([5]; In vitro Assay, ref Aleo 2019): -VE
Ro2 Hybrid HRM Score ([5]; In vitro Assay, ref Aleo 2019): -VE
DILI Score (FDA) (1-8) ([2]; ref Chen 2011): 8
DILI +VE (5-8), DILI -VE (-4) ([3]; ref Chen 2016): +VE
DILI severity category ([3]; ref Chen 2016): vMost-DILI-Concern
In vivo DILI ([4]; ref Aleo 2019): +VE

CCc1cccc2c3c([nH]c12)C(CC)(CC(=O)O)OCC3 (stereo not shown) [etodolac]
Ro2 Hybrid HRM Score ([5]; In vitro Assay, ref Aleo 2019): +VE
DILI Score (FDA) (1-8) ([2]; ref Chen 2011): 8
DILI +VE (5-8), DILI -VE (-4) ([3]; ref Chen 2016): +VE
DILI severity category ([3]; ref Chen 2016): vMost-DILI-Concern
In vivo DILI ([4]; ref Aleo 2019): +VE

CC(C(=O)O)c1cccc(Oc2ccccc2)c1 (stereo not shown) [fenoprofen]
Partition Hybrid HRM Score ([5]; In vitro Assay, ref Aleo 2019): +VE
Ro2 Hybrid HRM Score ([5]; In vitro Assay, ref Aleo 2019): +VE
DILI Score (FDA) (1-8) ([2]; ref Chen 2011): 8
DILI +VE (5-8), DILI -VE (-4) ([3]; ref Chen 2016): +VE
DILI severity category ([3]; ref Chen 2016): vMost-DILI-Concern
In vivo DILI ([4]; ref Aleo 2019): +VE

OC(Cn1cncn1)(Cn1cncn1)c1ccc(F)cc1F [fluconazole]
hLiMTs ATP <20 x Cmax (PHH spheroids): -VE
Structural based (HCI) (human hepatocytes; In vitro Assay, ref Xu 2008): -VE
Ro2 Hybrid HRM Score ([5]; In vitro Assay, ref Aleo 2019): -VE
in vitro data EC2<=1x Cmax [1]: +VE
in vitro data EC20<=2uM [1]: -VE
DILI Score (FDA) (1-8) ([2]; ref Chen 2011): 8
DILI +VE (5-8), DILI -VE (-4) ([3]; ref Chen 2016): +VE
DILI severity category ([3]; ref Chen 2016): vMost-DILI-Concern
In vivo DILI ([4]; […]): +VE
In vivo DILI ([4]; ref Aleo 2019): +VE
In vivo DILI ([4]; ref Porceddu 2012): +VE
In vivo DILI ([4]; ref Vorrink 2018): +VE
In vivo DILI ([4]; ref Xu 2008): +VE

O=C(c1ccccc1)c1ccc2n1CCC2C(=O)O (stereo not shown) [ketorolac]
hLiMTs ATP <20 x Cmax (PHH spheroids): +VE (IC20 < 20 × Cmax.tot cut-off)
Structural based (HCI) (human hepatocytes; In vitro Assay, ref Xu 2008): -VE
Partition Hybrid HRM Score ([5]; In vitro Assay, ref Aleo 2019): -VE
Ro2 Hybrid HRM Score ([5]; In vitro Assay, ref Aleo 2019): -VE
Cluser analysis (HepG2 cells [6]): -VE
Structural based (HCI) (HepG2 cells [6]): -VE
Structural based (HCI) (HepG2 cells [7]): -VE
DILI Score (FDA) (1-8) ([2]; ref Chen 2011): 3
DILI +VE (5-8), DILI -VE (-4) ([3]; ref Chen 2016): +VE
DILI severity category ([3]; ref Chen 2016): vLess-DILI-Concern
In vivo DILI ([4]; ref Aleo 2019): +VE
In vivo DILI ([4]; ref O'Brien 2006): +VE
In vivo DILI ([4]; ref Persson 2013): +VE
In vivo DILI ([4]; ref Vorrink 2018): +VE
In vivo DILI ([4]; ref Xu 2008): +VE

Cc1cccc(C)c1OCC(C)N (stereo not shown) [mexiletine]
hLiMTs ATP <20 x Cmax (PHH spheroids): +VE (IC20 < 20 × Cmax.tot cut-off)
Structural based (HCI) (human hepatocytes): +VE
DILI Score (FDA) (1-8) ([2]; in vivo): 3
DILI +VE (5-8), DILI -VE (-4) ([3]; in vivo): +VE
DILI severity category ([3]; in vivo): vMost-DILI-Concern
In vivo DILI ([4]; in vivo): +VE

CN(C)c1ccc(O)c2c1C[C@H]1C[C@H]3[C@H](N(C)C)C(O)=C(C(N)=O)C(=O)[C@@]3(O)C(O)=C1C2=O [minocycline]
Ro2 Hybrid HRM Score [5]: +VE
Cluser analysis (HepG2 cells [6]): -VE
Structural based (HCI) (HepG2 cells [6]): -VE
Structural based (HCI) (HepG2 cells [7]): +VE
DILI Score (FDA) (1-8) ([2]; in vivo): 2
DILI +VE (5-8), DILI -VE (-4) ([3]; in vivo): +VE
DILI severity category ([3]; in vivo): vMost-DILI-Concern
In vivo DILI ([4]; in vivo): +VE

CNC(=C[N+](=O)[O-])NCCSCc1csc(CN(C)C)n1 [nizatidine]
Partition Hybrid HRM Score ([5]; In vitro Assay, ref Aleo 2019): -VE
Ro2 Hybrid HRM Score ([5]; In vitro Assay, ref Aleo 2019): -VE
Structural based (HCI) (HepG2 cells [7]): +VE (lowest HCI endpoint IC50 (or in the absence of dose–response < 100 µM) < 30 × total human plasma exposure levels (Cmax.tot))
DILI Score (FDA) (1-8) ([2]; ref Chen 2011): 5
DILI +VE (5-8), DILI -VE (-4) ([3]; ref Chen 2016): +VE
DILI severity category ([3]; ref Chen 2016): vLess-DILI-Concern
In vivo DILI ([4]; ref Aleo 2019): +VE
In vivo DILI ([4]; ref O'Brien 2006): +VE

CCCCCCCCCCC[C@@H](C[C@@H]1OC(=O)[C@H]1CCCCCC)OC(=O)[C@H](CC(C)C)NC=O [orlistat]
Partition Hybrid HRM Score ([5]; In vitro Assay, ref Aleo 2019): +VE
Ro2 Hybrid HRM Score ([5]; In vitro Assay, ref Aleo 2019): +VE
DILI Score (FDA) (1-8) ([2]; ref Chen 2011): 8
DILI +VE (5-8), DILI -VE (-4) ([3]; ref Chen 2016): +VE
DILI severity category ([3]; ref Chen 2016): vMost-DILI-Concern
In vivo DILI ([4]; ref Aleo 2019): +VE

CCOC(=O)C1=C[C@@H](OC(CC)CC)[C@H](NC(C)=O)[C@@H](N)C1 [oseltamivir]
Partition Hybrid HRM Score, In vitro Assay ([5]; Partition hybrid, ref Aleo 2019): +VE
Ro2 Hybrid HRM Score, In vitro Assay ([5]; Rule of Two hybrid, ref Aleo 2019): -VE
DILI Score (FDA) (1-8) ([2]; FDA drug labelling score, ref Chen 2011): 3
DILI severity category ([3]; LTKB DILIrank category, ref Chen 2016): Ambiguous DILI-concern
DILI +VE (5-8), DILI -VE (-4) ([3]; binary DILI call, ref Chen 2016): -VE

CN(C)[C@@H]1C(O)=C(C(N)=O)C(=O)[C@@]2(O)C(O)=C3C(=O)c4c(O)cccc4[C@@](C)(O)[C@H]3[C@H](O)[C@@H]12 [oxytetracycline]
DILI Score (FDA) (1-8) [2, 8]: 2
DILI +VE (5-8), DILI -VE (-4) [3, 9]: -VE
DILI severity category [3, 10]: Ambiguous DILI-concern

CC(C)(S)[C@@H](N)C(=O)O [penicillamine]
DILI Score (FDA) (1-8) [2, 8]: 3
DILI +VE (5-8), DILI -VE (-4) [3, 9]: +VE
DILI severity category [3, 10]: vLess-DILI-Concern

C[C@]12C=CC(=O)C=C1CC[C@@H]1[C@@H]2[C@@H](O)C[C@@]2(C)[C@H]1CC[C@]2(O)C(=O)CO [prednisolone]
DILI Score (FDA) (1-8) ([2]; in vivo): 3
DILI +VE (5-8), DILI -VE (-4) ([3]; in vivo): +VE
DILI severity category ([3]; in vivo): vLess-DILI-Concern
In vivo DILI ([4]; in vivo): -VE

C=CC[C@@H]1/C=C(\C)C[C@H](C)C[C@H](OC)[C@H]2O[C@@](O)(C(=O)C(=O)N3CCCC[C@H]3C(=O)O[C@H](/C(C)=C/[C@@H]3CC[C@@H](O)[C@H](OC)C3)[C@H](C)[C@@H](O)CC1=O)[C@H](C)C[C@@H]2OC [tacrolimus]
Partition Hybrid HRM Score ([5]; In vitro Assay, ref Aleo 2019): -VE
Ro2 Hybrid HRM Score ([5]; In vitro Assay, ref Aleo 2019): -VE
DILI Score (FDA) (1-8) ([2]; ref Chen 2011): 5
DILI +VE (5-8), DILI -VE (-4) ([3]; ref Chen 2016): +VE
DILI severity category ([3]; ref Chen 2016): vLess-DILI-Concern
In vivo DILI ([4]; ref Aleo 2019): +VE

C[C@H](Cn1cnc2c(N)ncnc21)OCP(=O)(O)O [tenofovir]
DILI Score (FDA) (1-8) [2, 8]: 8
DILI +VE (5-8), DILI -VE (-4) [3, 9]: +VE
DILI severity category [3, 10]: vLess-DILI-Concern

CCC[C@@]1(CCc2ccccc2)CC(O)=C([C@H](CC)c2cccc(NS(=O)(=O)c3ccc(C(F)(F)F)cn3)c2)C(=O)O1 [tipranavir]
Partition Hybrid HRM Score ([5]; In vitro Assay, ref Aleo 2019): +VE
Ro2 Hybrid HRM Score ([5]; In vitro Assay, ref Aleo 2019): +VE
DILI Score (FDA) (1-8) ([2]; ref Chen 2011): 8
DILI +VE (5-8), DILI -VE (-4) ([3]; ref Chen 2016): +VE
DILI severity category ([3]; ref Chen 2016): vMost-DILI-Concern
In vivo DILI ([4]; ref Aleo 2019): +VE

CN(C)CCOc1ccc(/C(=C(/CCCl)c2ccccc2)c2ccccc2)cc1 [toremifene]
DILI Score (FDA) (1-8) [2, 8]: 3
DILI +VE (5-8), DILI -VE (-4) [3, 9]: -VE
DILI severity category [3, 10]: Ambiguous DILI-concern

carboplatin
Partition Hybrid HRM Score ([5]; In vitro Assay, ref Aleo 2019): -VE
Ro2 Hybrid HRM Score ([5]; In vitro Assay, ref Aleo 2019): -VE
DILI Score (FDA) (1-8) ([2]; ref Chen 2011): 3
DILI +VE (5-8), DILI -VE (-4) ([3]; ref Chen 2016): +VE
DILI severity category ([3]; ref Chen 2016): vLess-DILI-Concern
In vivo DILI ([4]; ref Aleo 2019): +VE
